# Test results reported in patent US9309213B2, “C-3 substituted bicyclooctane based HIV protease inhibitors” (Purdue Research Foundation, priority 2011, dated 2016).
# Where two headings read alike, the source gives them in different places.
# Key:
# Type in all cases: cell-based
# [1] = test system: HIV-1ERS104pre (wild type); experiment: Antiviral assay in PHA-PBMs, inhibition of p24 Gag protein production, wild-type isolate
# [2] = test system: multidrug-resistant HIV-1 variants; experiment: Antiviral activity against the panel of multidrug-resistant HIV-1 variants
# Protocol: Inhibitors 22 with a 3(S)-hydroxyl group and 25 with a 3(R)-hydroxyl group on the Cp-THF ligand were tested against a panel of multidrug-resistant HIV-1 variants. […] The contrast in antiviral activity of 22 compared to 25 underlines the importance of the stereochemistry at the 3-position of the Cp-THF ligand.
# Such a stark contrast in antiviral activities underlines the importance of the stereochemistry at the 3-position of the P2 ligand.
# HIV-1MDR/C = experiment: microbe, parasite or virus in culture; details: for EC50 / fold-change in EC50: Table 4; for EC50: HIV-1MDR/C (X4), PHA-PBMs, p24 Gag; for fold-change in EC50: HIV-1MDR/C compared to wild-type HIV-1ERS104pre
# HIV-1MDR/B = experiment: microbe, parasite or virus in culture; details: for EC50 / fold-change in EC50: Table 4; for EC50: HIV-1MDR/B (X4), PHA-PBMs, p24 Gag; for fold-change in EC50: HIV-1MDR/B compared to wild-type HIV-1ERS104pre
# HIV-1MDR/G = experiment: microbe, parasite or virus in culture; details: for EC50 / fold-change in EC50: Table 4; for EC50: HIV-1MDR/G (X4), PHA-PBMs, p24 Gag; for fold-change in EC50: HIV-1MDR/G compared to wild-type HIV-1ERS104pre
# HIV-1MDR/TM = experiment: microbe, parasite or virus in culture; details: for EC50 / fold-change in EC50: Table 4; for EC50: HIV-1MDR/TM (X4), PHA-PBMs, p24 Gag; for fold-change in EC50: HIV-1MDR/TM compared to wild-type HIV-1ERS104pre
# HIV-1LAI = experiment: In vitro antiviral assay, MT-2 cells exposed to HIV-1LAI, MTT assay
# [3] = Human immunodeficiency virus 1, read-out: IC50 ± SDs
SMILES,EC50 (HIV-1MDR/C),fold-change in EC50 (HIV-1MDR/C),EC50 (HIV-1MDR/B),fold-change in EC50 (HIV-1MDR/B),EC50 (HIV-1MDR/G),fold-change in EC50 (HIV-1MDR/G),EC50 (HIV-1MDR/TM),fold-change in EC50 (HIV-1MDR/TM),other results
COC(=O)N[C@@H]1CO[C@@H]2C[C@H](OC(=O)N[C@@H](Cc3ccccc3)[C@H](O)CN(CC(C)C)S(=O)(=O)c3ccc(OC)cc3)C[C@H]12 [Inhibitor 19l],30 ± 6 nM,1,75 ± 11 nM,3,39 ± 1 nM,1,74 ± 6 nM,3,"EC50 ([1]; Table 4, HIV-1ERS104pre (wt), PHA-PBMs, p24 Gag, read-out: EC50 ± SDs): 29 ± 2 nM; fold changes in EC50 ([2]; all MDR HIV-1 viruses versus wild type): < 3"
COC(=O)N[C@H]1CO[C@@H]2C[C@H](OC(=O)N[C@@H](Cc3ccccc3)[C@H](O)CN(CC(C)C)S(=O)(=O)c3ccc(OC)cc3)C[C@H]12 [Inhibitor 19m],15 ± 5 nM,5,18 ± 3 nM,6,20 ± 5 nM,7,24 ± 4 nM,8,"EC50 ([1]; wild-type HIV-1ERS104pre, read-out: EC50): 3 nM; EC50 ([2]; range over the strains): 15 to 24 nM"
COc1ccc(S(=O)(=O)N(CC(C)C)C[C@@H](O)[C@H](Cc2ccccc2)NC(=O)O[C@@H]2C[C@@H]3[C@@H](O)CO[C@@H]3C2)cc1 [Inhibitor 25],,,,,,,,,"IC50 ([1]; Human immunodeficiency virus 1): 2.9 nM; IC50 [1, 3]: 2.9 ± 0.8 nM; IC50 (HIV-1LAI; Human immunodeficiency virus 1, MT2, Table 1, MT-2 cells, 100 TCID50s of HIV-1LAI, MTT assay, means of at least two experiments): 2.9 nM; IC50 (HIV-1LAI; Human immunodeficiency virus 1, MT2, read-out: antiviral IC50): 2.9 nM; IC50 ([2]; Human immunodeficiency virus 1, read-out: IC50 values against various multidrug-resistant HIV-1 strains): 2.9 to 29 nM; IC50 (HIV-1MDR/C; [3]): 22 ± 3 nM; IC50 (HIV-1MDR/B; [3]): 29 ± 7 nM; IC50 (HIV-1MDR/G; [3]): 4.5 ± 0.7 nM; IC50 (HIV-1MDR/TM; [3]): 3.1 ± 2 nM"
